Assay results from ChEMBL document CHEMBL1201862, “PubChem BioAssay data set” (2004).
The source made the active and inactive calls.

Legend:
[1] = molecular target: T1, Ubiquitin-conjugating enzyme E2 N (Homo sapiens, UniProt P61088); format: functional;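 also: Dose-response confirmation in a TR-FRET assay detecting UBC13-driven polyubiquitin chain formation, inhibition measured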
T1 sequence (P61088 whole entry): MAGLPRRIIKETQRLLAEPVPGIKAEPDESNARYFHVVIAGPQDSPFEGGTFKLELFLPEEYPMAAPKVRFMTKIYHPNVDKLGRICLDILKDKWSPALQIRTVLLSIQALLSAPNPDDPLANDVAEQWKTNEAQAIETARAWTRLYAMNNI

[2] = molecular target: T2, Rac GTPase-activating protein 1 (Homo sapiens, UniProt Q9H0H5); assay: blockers of MgcRacGAP-driven Rac1 GTP hydrolysis – biochemical, ADP Hunter fluorescence, primary and confirmatory, confirmation (AID 624330); format: functional
T2 sequence (Q9H0H5 whole entry): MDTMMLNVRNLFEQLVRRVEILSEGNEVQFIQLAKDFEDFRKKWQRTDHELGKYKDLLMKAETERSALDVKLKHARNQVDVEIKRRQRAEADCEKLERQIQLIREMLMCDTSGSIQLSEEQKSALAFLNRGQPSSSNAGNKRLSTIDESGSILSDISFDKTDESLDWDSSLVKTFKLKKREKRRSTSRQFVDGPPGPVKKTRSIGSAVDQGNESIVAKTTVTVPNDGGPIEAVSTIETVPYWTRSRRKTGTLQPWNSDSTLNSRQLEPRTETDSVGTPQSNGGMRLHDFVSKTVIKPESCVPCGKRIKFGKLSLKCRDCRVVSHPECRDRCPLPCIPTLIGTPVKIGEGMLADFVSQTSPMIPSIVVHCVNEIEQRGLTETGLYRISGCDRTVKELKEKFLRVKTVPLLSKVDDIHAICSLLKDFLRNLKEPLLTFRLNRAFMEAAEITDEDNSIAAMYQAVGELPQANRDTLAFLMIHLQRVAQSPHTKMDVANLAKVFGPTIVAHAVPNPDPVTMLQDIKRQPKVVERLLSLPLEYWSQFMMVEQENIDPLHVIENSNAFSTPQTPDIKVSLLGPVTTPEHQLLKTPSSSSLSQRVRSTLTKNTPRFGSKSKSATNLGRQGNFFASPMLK

Cytochrome P450 1A2 = molecular target: T3, Cytochrome P450 1A2 (Homo sapiens, UniProt P05177);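 also: PubChem cytochrome P450 panel assay, CYP1A2 panel member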
T3 sequence (P05177 whole entry): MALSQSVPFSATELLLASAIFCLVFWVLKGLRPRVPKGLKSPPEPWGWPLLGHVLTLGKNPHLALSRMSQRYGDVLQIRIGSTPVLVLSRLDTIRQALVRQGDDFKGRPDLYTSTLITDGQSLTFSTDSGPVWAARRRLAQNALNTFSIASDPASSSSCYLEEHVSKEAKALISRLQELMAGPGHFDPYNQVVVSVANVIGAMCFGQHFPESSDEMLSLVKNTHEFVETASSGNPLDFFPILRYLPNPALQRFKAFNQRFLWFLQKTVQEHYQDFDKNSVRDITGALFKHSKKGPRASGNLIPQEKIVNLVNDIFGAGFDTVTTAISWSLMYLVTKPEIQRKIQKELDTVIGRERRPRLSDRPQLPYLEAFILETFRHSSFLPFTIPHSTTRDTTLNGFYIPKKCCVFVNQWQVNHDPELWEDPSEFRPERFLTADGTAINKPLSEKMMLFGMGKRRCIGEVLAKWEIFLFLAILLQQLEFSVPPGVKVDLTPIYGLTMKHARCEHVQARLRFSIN

Cytochrome P450 3A4 = Cytochrome P450 3A4 (Homo sapiens, UniProt P08684);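 also: CYP3A4 tested as one member of a cytochrome P450 panel screen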
Protein skinhead-1 = molecular target: T4, Protein skinhead-1 (Caenorhabditis elegans, UniProt P34707); format: functional
T4 sequence (P34707 whole entry): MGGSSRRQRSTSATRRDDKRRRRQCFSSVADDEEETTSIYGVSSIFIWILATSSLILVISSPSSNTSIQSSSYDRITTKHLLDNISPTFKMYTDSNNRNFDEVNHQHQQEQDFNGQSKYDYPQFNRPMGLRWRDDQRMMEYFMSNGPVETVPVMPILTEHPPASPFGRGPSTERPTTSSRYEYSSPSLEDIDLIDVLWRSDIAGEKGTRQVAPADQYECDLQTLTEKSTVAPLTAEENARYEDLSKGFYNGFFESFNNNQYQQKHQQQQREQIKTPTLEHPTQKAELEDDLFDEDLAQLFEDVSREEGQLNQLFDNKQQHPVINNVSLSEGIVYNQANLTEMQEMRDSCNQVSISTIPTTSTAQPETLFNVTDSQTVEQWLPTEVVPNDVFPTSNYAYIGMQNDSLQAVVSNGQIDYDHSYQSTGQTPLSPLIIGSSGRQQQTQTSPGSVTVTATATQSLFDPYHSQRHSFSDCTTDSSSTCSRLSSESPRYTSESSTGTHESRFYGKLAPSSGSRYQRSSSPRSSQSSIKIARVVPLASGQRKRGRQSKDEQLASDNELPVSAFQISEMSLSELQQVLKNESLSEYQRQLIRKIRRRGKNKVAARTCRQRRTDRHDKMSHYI

cells [3] = format: functional, cell-based
cells [4] = format: functional, cell-based; remark: listed apart in the source
[5] = Luminescence Cell-Based Dose Retest to Confirm Inhibitors of Cancer Stem Cells. [Related pubchem assays (depositor defined):AID2717, AID2721]; format: functional; settings: Homo sapiens
INS1 = assay: INS-1E survival protection against cytokine death – cell-based, luminescence, retest, dose response (AID 449756); format: functional; settings: Rattus norvegicus;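 also: cell death triggered by IL-1 beta plus TNF-alpha plus IFN-gamma mixture; protective hits raise ATP signal compared with cytokine alone wells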
Cytochrome P450 2C19 = Cytochrome P450 2C19 (Homo sapiens, UniProt P33261); assay: Cytochrome panel assay with activity outcomes. Panel member name: p450-cyp2c19 Compounds with AC50 equal or less than 10 uM are considered active; format: functional; settings: read-out: AC50
Cytochrome P450 2D6 = Cytochrome P450 2D6 (Homo sapiens, UniProt P10635);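 also: CYP2D6 member of a cytochrome P450 panel assay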
[6] = molecular target: T5, Short transient receptor potential channel 4 (Mus musculus, UniProt Q9QUQ5); assay: block of DAMGO-driven TRPC4 calcium entry – cell-based, HEK293 TRPC4/mu-opioid, Fluo-4 calcium, dose response (AID 434942); format: functional;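 also: potency of inhibitors blocking the TRPC4 calcium response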
T5 sequence (Q9QUQ5 whole entry): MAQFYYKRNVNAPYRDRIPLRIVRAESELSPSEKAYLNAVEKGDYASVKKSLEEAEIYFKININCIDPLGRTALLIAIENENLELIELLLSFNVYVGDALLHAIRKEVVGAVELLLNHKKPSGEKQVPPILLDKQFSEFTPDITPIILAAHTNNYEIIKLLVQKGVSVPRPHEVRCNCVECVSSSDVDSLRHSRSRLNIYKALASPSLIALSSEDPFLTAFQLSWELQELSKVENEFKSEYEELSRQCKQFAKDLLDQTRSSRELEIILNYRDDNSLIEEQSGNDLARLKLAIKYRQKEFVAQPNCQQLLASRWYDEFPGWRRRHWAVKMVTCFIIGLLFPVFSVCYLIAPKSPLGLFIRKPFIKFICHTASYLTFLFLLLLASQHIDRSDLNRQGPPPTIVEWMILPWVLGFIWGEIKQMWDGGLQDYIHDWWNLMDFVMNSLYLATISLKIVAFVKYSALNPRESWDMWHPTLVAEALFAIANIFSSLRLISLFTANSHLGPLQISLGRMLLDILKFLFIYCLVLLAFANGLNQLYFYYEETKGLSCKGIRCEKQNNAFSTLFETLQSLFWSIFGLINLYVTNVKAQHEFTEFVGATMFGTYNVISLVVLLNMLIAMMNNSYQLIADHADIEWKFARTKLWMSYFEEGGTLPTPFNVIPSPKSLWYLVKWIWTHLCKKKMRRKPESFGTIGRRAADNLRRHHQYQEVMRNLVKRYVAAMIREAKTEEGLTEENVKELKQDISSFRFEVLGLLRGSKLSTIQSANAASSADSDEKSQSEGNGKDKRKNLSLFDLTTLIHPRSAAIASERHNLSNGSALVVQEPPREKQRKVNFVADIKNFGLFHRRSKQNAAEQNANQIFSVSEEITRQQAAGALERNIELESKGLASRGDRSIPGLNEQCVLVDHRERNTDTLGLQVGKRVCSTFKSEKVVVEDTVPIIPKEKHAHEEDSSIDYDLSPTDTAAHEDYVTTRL

Cytochrome P450 2C9 = Cytochrome P450 2C9 (Homo sapiens, UniProt P11712)
[7] = molecular target: FAD-linked sulfhydryl oxidase ALR (Homo sapiens, UniProt P55789); assay: ALR-catalysed DTT oxidation blockers – biochemical, H2O2 detection, luminescence, cherry-pick, dose response (AID 493248)
[8] = Luminescence Cell-Based Dose Response HTS to Identify Activators of Luciferase Translation or Activity in H4 […] Cells. [Related pubchem assays: 1829 (Project Summary), 1814 (Primary HTS)]; format: functional
[9] = molecular target: Luciferin 4-monooxygenase (Photinus pyralis, UniProt P08659); assay: inhibition of purified Photinus pyralis luciferase – biochemical, luminescence, dose response (AID 1891)
[10] = Luminescence Cell-Based Dose Confirmation HTS to Identify Inhibitors of Platelet Dense Granule Release. [Related pubchem assays: 1663 (Primary HTS), 1678 (Summary of Project)]; format: functional
[11] = P. falciparum Dd2 growth inhibitors, dose response, SYBR Green, cherry-picked samples (AID 1159567); format: functional, cell-based
cells [12] = format: functional

Chain of Cytochrome P450 2C19 (P33261 whole entry): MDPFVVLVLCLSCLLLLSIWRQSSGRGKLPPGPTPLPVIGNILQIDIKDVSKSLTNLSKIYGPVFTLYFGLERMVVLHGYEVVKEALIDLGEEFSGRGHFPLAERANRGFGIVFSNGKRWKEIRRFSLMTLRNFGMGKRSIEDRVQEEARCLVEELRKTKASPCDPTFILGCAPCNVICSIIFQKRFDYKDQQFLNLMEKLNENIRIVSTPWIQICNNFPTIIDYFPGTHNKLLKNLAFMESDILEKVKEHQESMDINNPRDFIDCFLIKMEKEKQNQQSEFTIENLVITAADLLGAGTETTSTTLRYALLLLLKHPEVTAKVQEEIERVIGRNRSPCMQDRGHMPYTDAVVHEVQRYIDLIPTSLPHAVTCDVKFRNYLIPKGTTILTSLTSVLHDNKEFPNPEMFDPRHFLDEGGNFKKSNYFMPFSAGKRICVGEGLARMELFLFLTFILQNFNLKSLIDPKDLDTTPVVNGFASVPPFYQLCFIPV
Chain of FAD-linked sulfhydryl oxidase ALR (P55789 whole entry): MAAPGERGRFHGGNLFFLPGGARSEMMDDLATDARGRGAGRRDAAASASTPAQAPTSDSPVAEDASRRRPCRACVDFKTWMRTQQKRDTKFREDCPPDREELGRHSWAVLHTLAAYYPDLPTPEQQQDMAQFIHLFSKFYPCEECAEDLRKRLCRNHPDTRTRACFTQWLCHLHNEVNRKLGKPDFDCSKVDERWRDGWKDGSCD
Chain of Cytochrome P450 2D6 (P10635 whole entry): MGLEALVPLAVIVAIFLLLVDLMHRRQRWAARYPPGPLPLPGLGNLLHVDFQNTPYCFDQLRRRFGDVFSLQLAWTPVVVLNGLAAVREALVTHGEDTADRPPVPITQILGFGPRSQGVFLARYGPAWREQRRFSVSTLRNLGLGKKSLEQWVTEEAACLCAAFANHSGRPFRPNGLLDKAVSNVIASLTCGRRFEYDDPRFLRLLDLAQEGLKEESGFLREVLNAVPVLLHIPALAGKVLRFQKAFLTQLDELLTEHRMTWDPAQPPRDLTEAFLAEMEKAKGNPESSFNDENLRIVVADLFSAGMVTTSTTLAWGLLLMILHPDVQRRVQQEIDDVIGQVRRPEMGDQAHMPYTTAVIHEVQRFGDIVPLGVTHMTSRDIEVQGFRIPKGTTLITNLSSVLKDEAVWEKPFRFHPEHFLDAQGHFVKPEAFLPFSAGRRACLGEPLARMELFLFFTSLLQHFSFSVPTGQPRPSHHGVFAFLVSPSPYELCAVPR
Chain of Luciferin 4-monooxygenase (P08659 whole entry): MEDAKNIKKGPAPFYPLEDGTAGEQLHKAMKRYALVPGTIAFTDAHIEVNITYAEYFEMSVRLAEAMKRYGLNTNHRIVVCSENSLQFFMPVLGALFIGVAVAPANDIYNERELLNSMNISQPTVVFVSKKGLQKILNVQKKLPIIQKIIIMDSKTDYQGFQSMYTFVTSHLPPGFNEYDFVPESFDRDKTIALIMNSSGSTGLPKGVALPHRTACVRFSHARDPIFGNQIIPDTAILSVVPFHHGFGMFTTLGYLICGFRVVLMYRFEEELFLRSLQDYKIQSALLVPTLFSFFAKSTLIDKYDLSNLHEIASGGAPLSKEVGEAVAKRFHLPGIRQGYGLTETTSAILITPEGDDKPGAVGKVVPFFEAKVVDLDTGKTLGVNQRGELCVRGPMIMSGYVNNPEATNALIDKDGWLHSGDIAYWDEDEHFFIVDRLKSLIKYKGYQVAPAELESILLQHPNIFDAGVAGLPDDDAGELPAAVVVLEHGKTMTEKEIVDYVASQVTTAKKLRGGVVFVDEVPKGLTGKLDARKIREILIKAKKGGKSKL
Chain of Cytochrome P450 3A4 (P08684 whole entry): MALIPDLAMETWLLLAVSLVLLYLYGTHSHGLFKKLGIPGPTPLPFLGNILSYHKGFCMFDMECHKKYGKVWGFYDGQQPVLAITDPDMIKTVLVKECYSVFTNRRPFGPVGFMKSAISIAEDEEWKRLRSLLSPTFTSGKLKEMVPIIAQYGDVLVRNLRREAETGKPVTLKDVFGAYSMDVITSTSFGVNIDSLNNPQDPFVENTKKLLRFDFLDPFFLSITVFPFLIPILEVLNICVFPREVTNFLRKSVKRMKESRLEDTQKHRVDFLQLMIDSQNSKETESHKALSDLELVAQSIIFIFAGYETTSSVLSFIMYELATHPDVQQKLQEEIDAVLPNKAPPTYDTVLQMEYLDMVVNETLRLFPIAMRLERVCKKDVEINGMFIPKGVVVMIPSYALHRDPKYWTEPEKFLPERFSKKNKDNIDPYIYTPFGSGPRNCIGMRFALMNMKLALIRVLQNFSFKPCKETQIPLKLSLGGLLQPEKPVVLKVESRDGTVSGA
Chain of Cytochrome P450 2C9 (P11712 whole entry): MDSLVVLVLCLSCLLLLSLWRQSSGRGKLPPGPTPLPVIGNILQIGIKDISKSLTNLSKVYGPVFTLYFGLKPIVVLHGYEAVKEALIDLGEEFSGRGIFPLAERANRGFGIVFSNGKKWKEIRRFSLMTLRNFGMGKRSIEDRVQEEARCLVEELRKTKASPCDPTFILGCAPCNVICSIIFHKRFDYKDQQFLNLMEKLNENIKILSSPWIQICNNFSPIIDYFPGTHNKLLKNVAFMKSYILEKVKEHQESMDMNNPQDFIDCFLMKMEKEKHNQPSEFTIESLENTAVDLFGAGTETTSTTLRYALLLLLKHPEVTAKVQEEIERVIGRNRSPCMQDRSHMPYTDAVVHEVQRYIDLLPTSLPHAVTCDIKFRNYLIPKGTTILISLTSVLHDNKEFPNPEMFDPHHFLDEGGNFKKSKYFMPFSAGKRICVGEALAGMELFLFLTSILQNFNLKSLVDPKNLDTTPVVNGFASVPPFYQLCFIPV

## O=C(NCCCn1ccnc1)C1CCN(S(=O)(=O)c2cc([N+](=O)[O-])ccc2Cl)CC1
[1]
  IC50: > 20 µM (inactive)

## COc1ccc(-c2c(-c3ccc(C#N)cc3)oc(=O)c3cc(OC)c(OC)cc23)cc1
[1]
  IC50: > 20 µM (inactive)

## COc1ccccc1N=NNc1ccccc1OC
[2]
  IC50: 90.3 µM (active)

## Oc1ccc(CCNCc2cc3c(cc2Br)OCO3)cc1
Cytochrome P450 1A2
  AC50: 1 µM (inconclusive)
Cytochrome P450 3A4
  AC50: 3.98 µM (inconclusive)

## CC(C)(C)NC(=O)CN(C(=O)CCC(=O)Nc1nccs1)c1cccc(C(F)(F)F)c1
Protein skinhead-1
  IC50: > 100 µM (inactive)

## CC(C)C1NC(=S)N(Cc2ccccc2)C1=O (stereo not drawn)
Cytochrome P450 1A2
  AC50: 20 µM (inconclusive)

## COc1cccc(/C=N/NC(=O)c2ccc(-c3ccccc3)cc2)c1O
Cells [3]
  EC50: 166 µM (active)
Cells [4]
  EC50: 56.6 µM (active)
[5]
  AC50: 3.26 µM (active)
INS1
  AC50: 3.83 µM (active)

## O=C(c1cccc(F)c1)N1CCC2(CCCN(C(c3ccccc3)c3ccccc3)C2)CC1
Cytochrome P450 2C19
  AC50: 5.01 µM (inconclusive)
Cytochrome P450 2D6
  AC50: 10 µM (inconclusive)
Cytochrome P450 1A2
  AC50: 6.31 µM (inconclusive)

## COc1ccc(C(=O)NCCc2nc3cc([N+](=O)[O-])ccc3n2C)cc1
Cells [3]
  EC50: > 350 µM (not active)
Cells [4]
  EC50: > 350 µM (not active)

## O=S(=O)(O)c1ccc2c(/N=N\c3cccc4ccccc34)c(O)c(S(=O)(=O)O)cc2c1
Cytochrome P450 1A2
  AC50: 5.01 µM (inconclusive)

## O=C(C[n+]1cccc(CNC(=O)c2ccc(OC(F)F)cc2)c1)Nc1ccc(SC(F)F)cc1
[6]
  EC50: 7.5 µM (active)
[1]
  IC50: > 20 µM (inactive)

## CC[N+](C)(CC)CCOC(=O)C1c2ccccc2Oc2ccccc21 [METHANTHELINE]
Cytochrome P450 1A2
  AC50: 10 µM (inconclusive)

## O=C(Nc1cnn(Cc2ccc(Cl)cc2)c1)c1ccc([N+](=O)[O-])cc1
Cytochrome P450 2C19
  AC50: 2.24 µM (inconclusive)
Cytochrome P450 1A2
  AC50: 6.31 µM (inconclusive)
Cytochrome P450 2C9
  AC50: 0.501 µM (inconclusive)

## CCOC(=O)CSc1nc(C(C)(C)C)cc(C(F)(F)F)c1C#N
[1]
  IC50: > 20 µM (inactive)

## Cc1ccc2c(c1)N(C(=O)CCC(=O)NCCCN1CCC(Cc3ccccc3)CC1)CCO2
[1]
  IC50: > 20 µM (inactive)
INS1
  AC50: 20.4 µM (active)

## Cc1ccc(OCCNC(=O)CCc2nc(O)c3c4c(sc3n2)CCCC4)cc1
Cells [3]
  EC50: > 350 µM (not active)
Cells [4]
  EC50: > 350 µM (not active)

## CCCCc1ccc(NC(=O)C2CCN(S(C)(=O)=O)CC2)cc1
Cells [3]
  EC50: > 350 µM (not active)
Cells [4]
  EC50: > 350 µM (not active)

## CC1=NN2C(=N)/C(=C\c3cc(C)n(Cc4ccccc4)c3C)C(=O)N=C2S1
Cells [3]
  EC50: > 350 µM (not active)
Cells [4]
  EC50: > 350 µM (not active)
[7]
  AC50: 0.405 µM (active)

## CCCCCNC(=O)c1ccccc1SC
Protein skinhead-1
  IC50: 74.6 µM (inactive)

## O=C1C(=Cc2ccccn2)CCc2ccccc21
Protein skinhead-1
  IC50: 43.7 µM (active)

## N/C(=N\N=C\c1ccc(O)cc1)c1nonc1N
[8]
  EC50: 0.334 µM (active)
[9]
  EC50: 8.45 µM (active)
[10]
  EC50: 1.07 µM (active)
[2]
  IC50: 23.4 µM (active)

## CCN(Cc1ccccc1)c1ccc(/C=N/N2CCOCC2)cc1
[2]
  IC50: 63.2 µM (active)

## O=C(O)c1cnc2c(ccc3ncc(C(=O)O)c(O)c32)c1O
Cytochrome P450 1A2
  AC50: 5.01 µM (inconclusive)

## CC1(C(=O)Nc2cnc3ccccc3c2)CCN1C(=O)c1ccccc1CCc1ccccc1 (stereo not drawn)
Protein skinhead-1
  IC50: > 100 µM (inactive)

## C[C@@H]1CN([C@@H](C)CO)S(=O)(=O)c2ccc(C#CC3(O)CCCC3)cc2O[C@H]1CN(C)C(=O)c1ccccc1
[11]
  AC50: 4.33 µM (active)

## O=C1CC2(CCCC2)CC(=O)N1CCCCNC[C@H]1COc2ccccc2O1
Cytochrome P450 1A2
  AC50: 79.4 µM (inconclusive)

## COc1ccccc1NC(=O)c1cc(S(=O)(=O)N2CCC3(CC2)OCCO3)ccc1F
[1]
  IC50: > 20 µM (inactive)

## COc1ccc(NC(=O)c2cccs2)cn1
Cells [3]
  EC50: > 350 µM (not active)
Cells [4]
  EC50: 48.3 µM (active)

## CCn1c2ccccc2c2cc(N)ccc21
[2]
  IC50: 64.1 µM (active)

## O=C(CCN1C(=O)S/C(=C\c2ccc(F)cc2)C1=O)Nc1ccc(C(=O)O)c(O)c1
Cells [3]
  EC50: > 350 µM (not active)
Cells [4]
  EC50: 3.94 µM (active)
Cells [12]
  IC50: 7.61 µM (active)

## c1ccc(C2(Cn3ccc4ccccc43)OCCO2)cc1
INS1
  AC50: 40.2 µM (active)
Protein skinhead-1
  IC50: > 100 µM (inactive)
